# Measurements as given in paper PMC4306533, “Distinct Features of Cap Binding by eIF4E1b Proteins” (Journal of Molecular Biology, 2015).
# Read-outs that look alike come from different tables or passages of the source.
# Columns and labels:
# heIF4E1a [1] = molecular target: T1, heIF4E1a (Homo sapiens, UniProt P06730); parameters: method as in PMID 17369309; conditions: equilibrium association constant; buffer without glycerol; footnote b; cited from earlier work
# T1 construct: made in house; host or cells: E. coli Rosetta2(DE3)
# XeIF4E1a [2] = experiment: time-synchronized fluorescence titration of cap analogue binding; parameters: species or system Xenopus laevis; conditions: without glycerol
# Source text: (§1) The time-synchronized fluorescence titration method, widely used to determine the affinity constants of cap–eIF4E complexes [[20,22–26]], measures the quenching of the intrinsic fluorescence of tryptophan residues due to cap binding (Fig. S2). Knowledge of the equilibrium association constant Kas enables the calculation of the free-energy changes involved in the interaction between eIF4E and ligand, according to the standard equation ΔG° = − RTlnKas.
# (§2) For human eIF4E1a and eIF4E1b and also for Xenopus eIF4E1a and its mutated forms, measurements were carried out using 0.1 μM protein in 50 mM Hepes/KOH (pH 7.2), 134.5 mM KCl, 0.5 mM EDTA and 1 mM DTT. For Xenopus eIF4E1b(ΔN27), the concentration was 0.2 μM and glycerol was added to the buffer to 10% (v/v) final concentration. […] Fluorescence of measured samples was excited at 280 nm (2.5 nm bandwidth) and detected at 337 nm or 330 nm (4 nm bandwidth), thus reducing the signal originated from the free cap analogues. Measurements were carried out on a LS-55 spectrofluorometer (Perkin Elmer Co.) using freshly prepared proteins, and the fluorescence intensities were corrected for sample dilution and the inner filter effect.
# (§3) Equilibrium association constants (Kas) were determined by fitting the theoretical dependence of fluorescence intensity on the total concentration of the cap analogue to the experimental data points, according to the equation described previously (see Ref. [22] and Fig. S2c).
# (§4) The final Kas was calculated as a weighted average of 2–6 independent titrations with the weights taken as the reciprocal of the numerical standard deviation squared. Numerical, nonlinear least-squares regression analysis was performed using Origin 6.0 (Microcal Software Inc.). Obtained association constants were used to determine the Gibbs free energy according to the standard equation ΔG° = − RTlnKas.
# heIF4E1b [3] = molecular target: T2, heIF4E1b (Homo sapiens, UniProt A6NMX2); experiment: as above; conditions: for Kas − glycerol heIF4E1b: equilibrium association constant, buffer without glycerol
# T2 construct: made in house; host or cells: E. coli Rosetta2(DE3)
# T2 sequence (A6NMX2 1-242): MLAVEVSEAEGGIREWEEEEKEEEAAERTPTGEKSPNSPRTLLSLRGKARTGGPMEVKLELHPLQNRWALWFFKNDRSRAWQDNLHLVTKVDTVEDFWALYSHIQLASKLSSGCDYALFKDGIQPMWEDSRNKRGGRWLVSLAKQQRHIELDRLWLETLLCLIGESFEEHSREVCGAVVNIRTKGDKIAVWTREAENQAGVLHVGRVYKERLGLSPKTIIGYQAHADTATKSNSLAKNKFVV
# Source text: as §1, §2, §3, §4
# XeIF4E1a [4] = molecular target: T3, XeIF4E1a (Xenopus laevis, UniProt P48597); experiment: as above; conditions: for Kas + glycerol XeIF4E1a / Kas − glycerol XeIF4E1a: equilibrium association constant; for Kas + glycerol XeIF4E1a / ΔΔG^o + glycerol XeIF4E1a: 10% glycerol; for Kas − glycerol XeIF4E1a: buffer without glycerol
# T3 construct: made in house; host or cells: E. coli Rosetta2(DE3)
# Source text: as §1, §2, §3, §4
# heIF4E1b [5] = experiment: as above; parameters: species or system human; conditions: for Ratio Kas (h4E1a) to Kas (h4E1b): without glycerol
# Source text: as §1, §2, §3, §4
# heIF4E1a [6] = molecular target: T1, heIF4E1a; experiment: as above
# Source text: as §1, §2, §3, §4
# X4E1a1’ (K102R) = molecular target: T4, X4E1a1’ (K102R) (Xenopus laevis, UniProt P48597, K102R); experiment: fluorescence titration, XeIF4E1a mutant; assay type: binding; conditions: mutant (K102R) of XeIF4E1a
# T4 construct: made in house; host or cells: E. coli Rosetta2(DE3)
# Source text: (§5) We tested the effect on cap-binding activity of these positions in the fluorescence assay with six mutated recombinant versions of Xenopus eIF4E1a (Fig. S4). The amino acids were introduced in XeIF4E1a sequentially in the order: E101S/K102R/S195A/M82S/T206L/T207S (numbering of the XeIF4E1a sequence is shifted backward by 4 amino acids relative to XeIF4E1b). […] The biggest contribution to the weaker cap binding of XeIF4E1a, in each case about 20%, resulted from changing Glu101 to Ser and Thr206 to Leu coupled with Thr207 to Ser, with the remaining mutations having only minor effects. […] Glu101 is a solvent-accessible amino acid and is proximal to Trp98 in the S3-S4 loop. […] Attenuation of the cap-binding affinity of XeIF4E1a resulting from mutating Thr206 and Thr207 is consistent with our results mentioned above showing significant influence of C-terminal loop residues on binding phosphate and the second nucleotide.
# (§6) For human eIF4E1a and eIF4E1b and also for Xenopus eIF4E1a and its mutated forms, measurements were carried out using 0.1 μM protein in 50 mM Hepes/KOH (pH 7.2), 134.5 mM KCl, 0.5 mM EDTA and 1 mM DTT. For Xenopus eIF4E1b(ΔN27), the concentration was 0.2 μM and glycerol was added to the buffer to 10% (v/v) final concentration. […] The gradually increasing concentration of cap analogue quenches protein fluorescence without shifting the spectrum maximum, while at high concentrations, the fluorescence signal of free cap analogue dominates over the fluorescence from other solution components including free eIF4E and eIF4E in complex with cap (Fig. S2a). Fluorescence of measured samples was excited at 280 nm (2.5 nm bandwidth) and detected at 337 nm or 330 nm (4 nm bandwidth), thus reducing the signal originated from the free cap analogues. Measurements were carried out on a LS-55 spectrofluorometer (Perkin Elmer Co.) using freshly prepared proteins, and the fluorescence intensities were corrected for sample dilution and the inner filter effect.
# (§7) Equilibrium association constants (Kas) were determined by fitting the theoretical dependence of fluorescence intensity on the total concentration of the cap analogue to the experimental data points, according to the equation described previously (see Ref. [22] and Fig. S2c). […] Along with Kas and the concentration of the active protein [P0^act], other parameters such as fL and ∆f = fPact − fPL are also gained from the fit, where fL represents the fluorescence efficiency of free cap analogue and ∆f represents the difference between the fluorescence efficiencies of the apo-protein and the complex (Fig. S2c).
# as §4
# [7] = molecular target: T5, X4E1a3 (E101S/K102R/S195A) (Xenopus laevis, UniProt P48597, E101S/K102R/S195A); experiment: fluorescence titration, XeIF4E1a mutant; assay type: binding; conditions: mutant (E101S/K102R/S195A) of XeIF4E1a
# T5 construct: made in house; host or cells: E. coli Rosetta2(DE3)
# Source text: as §5, §6, §7, §4
# [8] = molecular target: T6, X4E1a4 (E101S/K102R/S195A/M82S) (Xenopus laevis, UniProt P48597, E101S/K102R/M82S/S195A); experiment: fluorescence titration, XeIF4E1a mutant; assay type: binding; conditions: mutant (E101S/K102R/S195A/M82S) of XeIF4E1a
# T6 construct: made in house; host or cells: E. coli Rosetta2(DE3)
# Source text: as §5, §6, §7, §4
# X4E1a2 (E101S/K102R) = molecular target: T7, X4E1a2 (E101S/K102R) (Xenopus laevis, UniProt P48597, E101S/K102R); experiment: fluorescence titration, XeIF4E1a mutant; assay type: binding; conditions: mutant (E101S/K102R) of XeIF4E1a
# T7 construct: made in house; host or cells: E. coli Rosetta2(DE3)
# Source text: as §5, §6, §7, §4
# X4E1a1 (E101S) = molecular target: T8, X4E1a1 (E101S) (Xenopus laevis, UniProt P48597, E101S); experiment: fluorescence titration, XeIF4E1a mutant; assay type: binding; conditions: mutant (E101S) of XeIF4E1a
# T8 construct: made in house; host or cells: E. coli Rosetta2(DE3)
# Source text: as §5, §6, §7, §4
# [9] = molecular target: T9, X4E1a6 (E101S/K102R/S195A/M82S/T206L/T207S) (Xenopus laevis, UniProt P48597, E101S/K102R/M82S/S195A/T206L/T207S); experiment: fluorescence titration, XeIF4E1a mutant; assay type: binding; conditions: mutant (E101S/K102R/S195A/M82S/T206L/T207S) of XeIF4E1a
# T9 construct: made in house; host or cells: E. coli Rosetta2(DE3)
# Source text: as §5, §6, §7, §4
# XeIF4E1bΔN27 = experiment: time-synchronized fluorescence titration of cap analogue binding; parameters: species or system Xenopus laevis; conditions: 10% glycerol
# Source text: as §1, §2, §3, §4
# [10] = change relative to m^7GTP, without glycerol
# T1 sequence (P06730 whole entry): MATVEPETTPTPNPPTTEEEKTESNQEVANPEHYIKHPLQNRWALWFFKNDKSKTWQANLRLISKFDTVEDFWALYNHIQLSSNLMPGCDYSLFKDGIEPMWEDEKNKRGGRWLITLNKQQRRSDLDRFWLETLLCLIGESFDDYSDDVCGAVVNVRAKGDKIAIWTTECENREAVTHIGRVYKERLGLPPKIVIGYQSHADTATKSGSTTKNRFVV
# T3 sequence (P48597 whole entry): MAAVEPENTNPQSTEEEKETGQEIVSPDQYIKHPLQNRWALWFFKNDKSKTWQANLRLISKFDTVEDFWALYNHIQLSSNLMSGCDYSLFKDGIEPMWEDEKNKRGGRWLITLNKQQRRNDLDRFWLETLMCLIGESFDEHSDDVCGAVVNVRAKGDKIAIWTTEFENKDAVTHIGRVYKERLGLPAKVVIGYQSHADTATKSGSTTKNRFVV
# T7 sequence (P48597 whole entry E101S/K102R): as the sequence (P48597 whole entry) above, with E101S, K102R counted along it
# T4 sequence (P48597 whole entry K102R): as the sequence (P48597 whole entry) above, with K102R counted along it
# T9 sequence (P48597 whole entry M82S/E101S/K102R/S195A/T206L/T207S): as the sequence (P48597 whole entry) above, with M82S, E101S, K102R, S195A, T206L, T207S counted along it
# T8 sequence (P48597 whole entry E101S): as the sequence (P48597 whole entry) above, with E101S counted along it
# T6 sequence (P48597 whole entry M82S/E101S/K102R/S195A): as the sequence (P48597 whole entry) above, with M82S, E101S, K102R, S195A counted along it
# T5 sequence (P48597 whole entry E101S/K102R/S195A): as the sequence (P48597 whole entry) above, with E101S, K102R, S195A counted along it
structure (smiles),measurement,setting,value
"Nc1nc2c(ncn2[C@@H]2O[C@H](COP(=O)(O)OP(=O)(O)OP(=O)(O)O)[C@@H](O)[C@H]2O)c(=O)[nH]1 [GTP, reference compound]",Kas − glycerol heIF4E1a,heIF4E1a [1],0.027 ± 0.001 ^b μM^− 1
same,Ratio Kas (h4E1a) to Kas (X4E1a),XeIF4E1a [2],0.87
same,Kas − glycerol heIF4E1b,heIF4E1b [3],0.159 ± 0.040 μM^− 1
same,Kas + glycerol XeIF4E1a,XeIF4E1a [4],0.055 ± 0.021 μM^− 1
same,Kas − glycerol XeIF4E1a,XeIF4E1a [4],0.031 ± 0.006 μM^− 1
same,fold higher affinity of human eIF4E1b than eIF4E1a,heIF4E1b [5]; human proteins,approximately 5 fold
same,Ratio Kas (h4E1a) to Kas (h4E1b),heIF4E1b [5],0.17
"CN(C)c1nc2c(c(=O)[nH]1)[n+](C)cn2[C@@H]1O[C@H](COP(=O)(O)OP(=O)(O)OP(=O)(O)O)[C@@H](O)[C@H]1O [m^2,2,7GTP]",ΔΔG^o − glycerol heIF4E1a,heIF4E1a [6]; [10],3.052 ± 0.045 kcal/mol
same,Kas − glycerol heIF4E1a,"heIF4E1a [6]; equilibrium association constant, buffer without glycerol",0.362 ± 0.008 μM^− 1
same,Ratio Kas (h4E1a) to Kas (X4E1a),XeIF4E1a [2],1.22
same,ΔΔG^o − glycerol heIF4E1b,heIF4E1b [3]; [10],2.557 ± 0.041 kcal/mol
same,Kas − glycerol heIF4E1b,heIF4E1b [3],0.272 ± 0.009 μM^− 1
same,ΔΔG^o + glycerol XeIF4E1a,XeIF4E1a [4]; change relative to m^7GTP,2.844 ± 0.042 kcal/mol
same,ΔΔG^o − glycerol XeIF4E1a,XeIF4E1a [4]; [10],2.897 ± 0.051 kcal/mol
same,Kas + glycerol XeIF4E1a,XeIF4E1a [4],0.176 ± 0.011 μM^− 1
same,Kas − glycerol XeIF4E1a,XeIF4E1a [4],0.295 ± 0.021 μM^− 1
same,Ratio Kas (h4E1a) to Kas (h4E1b),heIF4E1b [5],1.33
same,Kas X4E1a1’,X4E1a1’ (K102R),0.268 ± 0.012 µM⁻¹
same,Kas X4E1a3,[7],0.193 ± 0.019 µM⁻¹
same,Kas X4E1a4,[8],0.317 ± 0.054 µM⁻¹
same,Kas X4E1a2,X4E1a2 (E101S/K102R),0.306 ± 0.046 µM⁻¹
same,Kas X4E1a1,X4E1a1 (E101S),0.350 ± 0.015 µM⁻¹
same,Kas X4E1a6,[9],0.185 ± 0.012 µM⁻¹
same,Ratio Kas (X4E1a) to Kas (X4E1bΔN27),XeIF4E1bΔN27,0.70
same,ΔΔG^o + glycerol XeIF4E1bΔN27,XeIF4E1bΔN27; change relative to m^7GTP,2.00 ± 0.11 kcal/mol
same,Kas + glycerol XeIF4E1bΔN27,XeIF4E1bΔN27; equilibrium association constant,0.253 ± 0.046 μM^− 1
"COC1C(O)C(COP(=O)(O)OP(=O)(O)OP(=O)(O)OCC2OC(n3cnc4c(=O)[nH]c(N)nc43)C(O)C2O)OC1n1c[n+](C)c2c(=O)[nH]c(N)nc21 (stereo not shown) [m^7,2′-OGpppG]",Kas − glycerol heIF4E1a,heIF4E1a [1],6.13 ± 0.34 ^b μM^− 1
same,Kas − glycerol heIF4E1b,heIF4E1b [3],4.63 ± 0.12 μM^− 1
same,ΔΔG^o + glycerol XeIF4E1a,XeIF4E1a [4]; change relative to m^7Gp3G,0.091 ± 0.074 kcal/mol
same,Kas + glycerol XeIF4E1a,XeIF4E1a [4],1.96 ± 0.24 μM^− 1
same,Ratio Kas (h4E1a) to Kas (h4E1b),heIF4E1b [5],1.32
